Results published in patent publication US20050176705A1, “Compounds useful in the treatment of cns disorders” (priority 2000, published 2005).
Structures can show the parent of a compound that is named as a salt.

target: T1, human cloned 5-HT6 receptors (Homo sapiens, UniProt P50406); experiment: 5-HT6 receptor affinity (procedures outlined in WO 98/27081); assay type: binding; conditions: not given
T1 construct: expressed in transfected cells
T1 sequence (P50406 whole entry): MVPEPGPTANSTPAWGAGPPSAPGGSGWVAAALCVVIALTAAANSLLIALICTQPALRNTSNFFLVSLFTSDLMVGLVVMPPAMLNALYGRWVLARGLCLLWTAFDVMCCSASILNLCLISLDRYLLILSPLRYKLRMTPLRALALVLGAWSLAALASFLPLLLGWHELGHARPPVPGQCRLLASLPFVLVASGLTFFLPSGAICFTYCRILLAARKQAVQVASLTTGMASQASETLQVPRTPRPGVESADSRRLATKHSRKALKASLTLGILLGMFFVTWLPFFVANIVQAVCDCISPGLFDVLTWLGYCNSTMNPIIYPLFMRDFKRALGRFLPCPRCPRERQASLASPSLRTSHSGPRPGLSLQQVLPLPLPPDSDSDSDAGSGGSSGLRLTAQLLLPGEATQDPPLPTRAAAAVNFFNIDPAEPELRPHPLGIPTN

| Compound | Ki |
| --- | --- |
| O=S(=O)(c1ccc(Br)cc1)n1ccc2c(N3CCNCC3)cccc21 [Example E113] | 0.2 to 1.58 nM |
| O=S(=O)(c1ccccc1)n1ccc2c(N3CCNCC3)ccc(Cl)c21 [Example E154, 1-Benzenesulfonyl-7-choro-4-piperazin-1-yl-1H-indole hydrochloride] | 0.2 to 1.58 nM |
| O=S(=O)(c1ccccc1Br)n1ccc2c(N3CCNCC3)c(Cl)ccc21 [Example E137, 1-(2-Bromobenzenesulfonyl)-5-chloro-4-piperazin-1-yl-1H-indole hydrochloride] | 0.2 to 1.58 nM |
| O=S(=O)(c1ccccc1)n1ccc2c(N3CCNCC3)c(Cl)ccc21 [Example E135, 1-(Benzenesulfonyl)-5-chloro-4-piperazin-1-yl-1H-indole hydrochloride] | 0.2 to 1.58 nM |
| O=S(=O)(c1cccc(Cl)c1)n1ccc2c(N3CCNCC3)c(F)ccc21 [Example E163, 1-(3-Chlorobenzenesulfonyl)-5-fluoro-4-piperazin-1-yl-1H-indole hydrochloride] | 0.2 to 1.58 nM |
| O=S(=O)(c1ccc(F)c(Cl)c1)n1ccc2c(N3CCNCC3)cccc21 [Example E123] | 0.2 to 1.58 nM |
| COc1ccc(N2CCNCC2)c2ccn(S(=O)(=O)c3cccc(Cl)c3)c12 [Example E173, 1-(3-Chlorobenzenesulfonyl)-7-methoxy-4-piperazin-1-yl-1H-indole hydrochloride] | 0.2 to 1.58 nM |
| O=[N+]([O-])c1cccc(S(=O)(=O)n2ccc3c(N4CCNCC4)cccc32)c1 [Example E119] | 0.2 to 1.58 nM |
| N#Cc1ccc(N2CCNCC2)c2ccn(S(=O)(=O)c3cccc(Cl)c3)c12 [Example E157, 7-Cyano-1-(3-chlorobenzenesulfonyl)-4-piperazin-1-yl-1H-indole hydrochloride] | 0.2 to 1.58 nM |
| O=S(=O)(c1cccc(Cl)c1)n1ccc2c(N3CCNCC3)c(Cl)cc(Cl)c21 [Example E159, 1-(3-Chlorobenzenesulfonyl)-5,7-dichloro piperazin-1-yl-1H-indole hydrochloride] | 0.2 to 1.58 nM |
| O=S(=O)(c1ccccc1Br)n1ccc2c(N3CCNCC3)cccc21 [Example E126] | 0.2 to 1.58 nM |
| O=S(=O)(c1cccc(Cl)c1)n1ccc2c(N3CCNCC3)cccc21 [Example E111] | 0.2 to 1.58 nM |
| O=S(=O)(c1cccc(Cl)c1)n1ccc2c(N3CCNCC3)ccc(Cl)c21 [Example E152, 7-Chloro-1-(3-chlorobenzenesulfonyl)-4-piperazin-1-yl-1H-indole hydrochloride] | 0.2 to 1.58 nM |
| O=S(=O)(c1cccc(Cl)c1)n1cc(Cl)c2c(N3CCNCC3)cccc21 [Example E151, 3-Chloro-1-(3-chlorobenzenesulfonyl)4-piperazin-1-yl-1H-indole hydrochloride] | 0.2 to 1.58 nM |
| O=S(=O)(c1cccc(Br)c1)n1ccc2c(N3CCNCC3)cccc21 [Example E107] | 0.2 to 1.58 nM |
| O=S(=O)(c1cc(Cl)cc(Cl)c1)n1ccc2c(N3CCNCC3)ccc(Cl)c21 [Example E153, 7-Chloro-1-(3,5-dichlorobenzenesulfonyl)-4-piperazin-1-yl-1H-indole hydrochloride] | 0.2 to 1.58 nM |
| O=S(=O)(c1cccc(Cl)c1)n1cc(Cl)c2c(N3CCNCC3)c(Cl)ccc21 [Example E158, 1-(3-Chlorobenzenesulfonyl)-3,5-dichloro-4-piperazin-1-yl-1H-indole hydrochloride] | 0.2 to 1.58 nM |

| Compound | Ki |
| --- | --- |
| COc1ccc2c(ccn2S(=O)(=O)c2cccc(Cl)c2)c1N1CCNCC1 [Example E172, 1-(3-Chlorobenzenesulfonyl)-5-methoxy-4-piperazin-1-yl-1H-indole hydrochloride] | 0.2 to 1.58 nM |
| O=S(=O)(c1cccs1)n1ccc2c(N3CCNCC3)cccc21 [Example E121] | 0.2 to 1.58 nM |
| Cc1ccc(S(=O)(=O)n2ccc3c(N4CCNCC4)cccc32)cc1Cl [Example E112] | 0.2 to 1.58 nM |
| COc1ccc2c(ccn2S(=O)(=O)c2ccc(C)cc2)c1N1CCNCC1 [Example E80, 5-Methoxy-4-(piperazin-1-yl)-1-(toluene-4-sulfonyl)-1H-indole] | 0.2 to 1.58 nM |
| CN1CCN(c2cccc3c2ccn3S(=O)(=O)c2cccs2)CC1 [Example E98] | 0.2 to 1.58 nM |
| O=S(=O)(c1cccc(Cl)c1)n1ccc2c(N3CCNCC3)cc(Cl)cc21 [Example E166, 6-Chloro-1-(3-chlorobenzenesulfonyl)-4-piperazin-1-yl-1H-indole hydrochloride] | 0.2 to 1.58 nM |
| O=S(=O)(c1cccc(Cl)c1)n1ccc2c(N3CCNCC3)ccc(Br)c21 [Example E156, 7-Bromo-1-(3-chlorobenzenesulfonyl)-4-piperazin-1-yl-1H-indole hydrochloride] | 0.2 to 1.58 nM |
| O=S(=O)(c1cc(F)cc(F)c1Cl)n1ccc2c(N3CCNCC3)cccc21 [Example E131, 1-(2-Chloro-3,5-difluorobenzenesulfonyl)-4-piperazin-1-yl-1H-indole] | 0.2 to 1.58 nM |
| Cc1cn(S(=O)(=O)c2cccc(Cl)c2)c2cccc(N3CCNCC3)c12 [Example E167, 1-(3-Chlorobenzenesulfonyl)-3-methyl-4-piperazin-1-yl-1H-indole hydrochloride] | 0.2 to 1.58 nM |
| Cc1cccc(S(=O)(=O)n2ccc3c(N4CCNCC4)c(Cl)ccc32)c1 [Example E140, 5-Chloro-1-(3-methylbenzenesulfonyl)-4-piperazin-4-yl-1H-indole hydrochloride] | 0.2 to 1.58 nM |
| O=S(=O)(c1cccc(Cl)c1)n1ccc2c(N3CCNCC3)c(Cl)ccc21 [Example E132, 5-Chloro-1-(3-chlorobenzenesulfonyl)-4-piperazin-1-yl-1H-indole hydrochloride] | 0.2 to 1.58 nM |
| O=S(=O)(c1cccc2nsnc12)n1ccc2c(N3CCNCC3)cccc21 [Example E40] | 0.2 to 1.58 nM |
| O=S(=O)(c1c(Cl)cccc1Cl)n1ccc2c(N3CCNCC3)cccc21 [Example E70] | 0.2 to 1.58 nM |
| O=S(=O)(c1cccc(F)c1)n1ccc2c(N3CCNCC3)cccc21 [Example E22] | 0.2 to 1.58 nM |
| Cc1cc2c(N3CCNCC3)cccc2n1S(=O)(=O)c1cccc(Cl)c1 [Example E165, 1-(3-Chlorobenzenesulfonyl)-2-methyl-4-piperazin-1-yl-1H-indole hydrochloride] | 0.2 to 1.58 nM |
| N#Cc1cc(Br)ccc1S(=O)(=O)n1ccc2c(N3CCNCC3)cccc21 [Example E171, 1-(4-Bromo-2-cyanobenzenesulfonyl)-4-piperazin-1-yl-1H-indole hydrochloride] | 0.2 to 1.58 nM |
| O=S(=O)(c1ccccn1)n1ccc2c(N3CCNCC3)c(Cl)ccc21 [Example E149, 5-Chloro-1-(pyridine-2-sulfonyl)-4-piperazin-4-yl-1H-indole hydrochloride] | 0.2 to 1.58 nM |

same assay, conditions: human cloned 5-HT6 receptors; procedures of WO 98/27081; read-out: pKi at human cloned 5-HT6 receptors (converted)

| Compound | Ki |
| --- | --- |
| CN1CCN(c2cccc3c2ccn3S(=O)(=O)c2ccccc2C(F)(F)F)CC1 [Example E91] | 0.2 to 1.58 nM |
| CN1CCN(c2cccc3c2ccn3S(=O)(=O)c2cc(Br)c(Cl)s2)CC1 [Example E85] | 0.2 to 1.58 nM |
| CN1CCN(c2cccc3c2ccn3S(=O)(=O)c2ccc3ccccc3c2)CC1 [Example E90] | 0.2 to 1.58 nM |
| O=S(=O)(c1ccccc1C(F)(F)F)n1ccc2c(N3CCNCC3)cccc21 [Example E115] | 0.2 to 1.58 nM |
| CN1CCN(c2cccc3c2ccn3S(=O)(=O)c2cccc(C(F)(F)F)c2)CC1 [Example E93] | 0.2 to 1.58 nM |
| CN1CCN(c2cccc3c2ccn3S(=O)(=O)c2ccc(F)c(Cl)c2)CC1 [Example E100] | 0.2 to 1.58 nM |
| CN1CCN(c2cccc3c2ccn3S(=O)(=O)c2cccc(Cl)c2)CC1 [Example E87] | 0.2 to 1.58 nM |
| CN1CCN(c2cccc3c2ccn3S(=O)(=O)c2ccccc2Br)CC1 [Example E103] | 0.2 to 1.58 nM |
| O=S(=O)(c1cccc(Cl)c1)n1ccc2c(N3CCCNCC3)ccc(Cl)c21 [Example E175, 7-Chloro-1-(3-chlorobenzenesulfonyl)-4-[1,4]diazepan-1-yl-1H-indole hydrochloride] | 0.2 to 1.58 nM |
| CN1CCN(c2cccc3c2ccn3S(=O)(=O)c2cc(Cl)cc(Cl)c2)CC1 [Example E99] | 0.2 to 1.58 nM |
| COc1c(Cl)cc(Cl)cc1S(=O)(=O)n1ccc2c(N3CCNCC3)c(Cl)ccc21 [Example E78, 5-Chloro-1-(3,5-dichloro-2-methoxybenzenesulfonyl)-4-piperazin-1-yl-1H-indole trifluoroacetic acid salt] | 0.2 to 1.58 nM |
| O=S(=O)(c1cccc(C(F)(F)F)c1)n1ccc2c(N3CCNCC3)c(Cl)ccc21 [Example E139, 5-Chloro-1-(3-trifluoromethyl-benzenesulfonyl)-4-piperazin-1-yl-1H-indole hydrochloride] | 0.2 to 1.58 nM |
| O=S(=O)(c1ccc2ccccc2c1)n1ccc2c(N3CCNCC3)c(Cl)ccc21 [Example E77, 5-Chloro-1-(naphthalene-2-sulfonyl)-4-piperazin-1-yl-1H-indole trifluoroacetic acid salt] | 0.2 to 1.58 nM |
| CN1CCN(c2cccc3c2ccn3S(=O)(=O)c2cccc(Br)c2)CC1 [Example E82] | 0.2 to 1.58 nM |
| N#Cc1cc(Br)ccc1S(=O)(=O)n1ccc2c(N3CCNCC3)c(Cl)ccc21 [Example E170, 1-(4-Bromo-2-cyanobenzenesulfonyl)-5-chloro-4-piperazin-1-yl-1H-indole hydrochloride] | 0.2 to 1.58 nM |
| CN1CCN(c2cccc3c2ccn3S(=O)(=O)c2ccccc2)CC1 [Example E94] | 0.2 to 1.58 nM |
| O=S(=O)(c1ccc(Cl)cc1OC(F)(F)F)n1ccc2c(N3CCNCC3)cccc21 [Example E168, 1-(4-Chloro-2-trifluoromethoxybenzenesulfonyl)-4-piperazin-1-yl-1H-indole hydrochloride] | 0.2 to 1.58 nM |
